± gives the expanded uncertainty stated by the source.

The conditions of data set [1]: 298.15 K; 101.33 kPa; Liquid; Pycnometric method.
The nature of data set [2]: refractive index (Na D-line) (dimensionless). Particulars: 298.15 K; 101.33 kPa; Liquid; Standard Abbe refractometry.

In general, mass density refers to mass per unit of volume. As a reminder, the refractive index is a measure of how strongly the sample bends light. Turning to `CC(=O)O` [acetic acid], the mass density in data set [1] was 1045 ± 8 kg/m3. Moreover, the refractive index in data set [2] was found to be 1.37 ± 0.001.

The values are drawn from the NIST ThermoML archive (doi:10.1021/je600527c).
